Reference: publication PMC7873226, “Molecular mechanism and structural basis of small-molecule modulation of the gating of acid-sensing ion channel 1” (Communications Biology, 2021)

Key:
rat ASIC1a [1] = target: T1, rat ASIC1a (Rattus norvegicus, UniProt P55926); test: Kinetics of onset of and recovery (wash) from compound inhibition; type: cell-based; details: wash after 100 nM; for pH 6.8-induced current, % pH7.4 control: holding pH 7.4, one cell; for pH 6.8-induced current, % pH8.2 control: holding pH 8.2, one cell
T1 construct: expressed in transfected cells
T1 sequence (P55926 1-526): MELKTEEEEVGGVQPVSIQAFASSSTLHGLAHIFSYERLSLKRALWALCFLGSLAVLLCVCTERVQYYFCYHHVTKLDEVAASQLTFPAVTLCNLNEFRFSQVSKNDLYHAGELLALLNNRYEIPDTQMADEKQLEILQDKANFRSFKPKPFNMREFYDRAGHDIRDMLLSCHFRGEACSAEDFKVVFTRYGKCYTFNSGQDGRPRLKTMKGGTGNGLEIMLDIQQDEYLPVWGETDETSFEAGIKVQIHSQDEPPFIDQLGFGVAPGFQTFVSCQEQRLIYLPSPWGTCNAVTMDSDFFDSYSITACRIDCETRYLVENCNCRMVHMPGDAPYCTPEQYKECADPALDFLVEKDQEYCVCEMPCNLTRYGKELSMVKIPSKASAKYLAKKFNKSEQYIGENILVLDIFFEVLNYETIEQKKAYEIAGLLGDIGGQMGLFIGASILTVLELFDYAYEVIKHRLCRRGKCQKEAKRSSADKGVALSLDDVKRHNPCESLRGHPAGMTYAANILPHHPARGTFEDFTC
Protocol: (§1) Chinese Hamster Ovary (CHO) cells stably expressing rat ASIC1a were cultured in Ham’s F12, supplemented with 10% FBS, 1% penicillin–streptomycin and 500 µg/mL G418 and incubated at 37 °C with 5% CO2. Transient transfections of rASIC1a and cASIC1 wild-type or mutant channels in CHO cells were performed with Lipofectamine 3000 (Thermo Fisher Scientific) according to the manufacturer’s recommendations. The green fluorescent protein (GFP) cDNA (at 1/10 the amount of channel cDNA) was co-transfected with channel cDNA to aid the identification of transfected cells under the microscope in patch clamp experiments. All cDNAs were sequence verified.
(§2) Cells were freshly dissociated with CellStripper (Corning) and dispersed in a chamber on the stage of an inverted microscope. Upon formation of the whole-cell conformation, the cell was lifted from the bottom of the chamber and placed at the tip of a tubing perfusing an extracellular solution containing (in mM): 149 NaCl, 2 CaCl2, 4 KCl, 1 MgCl2, 5 glucose, 10 HEPES, pH 7.4, 310 mOsm/L. Extracellular solutions at more basic or acidic pHs were made by titrating the above pH 7.4 solution with NaOH or HCl (5 mM MES was added to solutions at pH 6.0 and lower). Pipette electrodes were filled with an intracellular solution containing (in mM): 135 KCl, 4 MgATP, 0.3 Na2GTP, 10 EGTA, and 20 HEPES, pH 7.2, 290 mOsm/L.
(§3) All recordings were performed at room temperature using an Axopatch 200B amplifier and pClamp 11 software (Molecular Devices). Currents were measured by whole-cell patch clamp, digitized at 10 kHz and lowpass filtered at 2 kHz. Series resistance was 75% compensated. Responses were elicited by rapid perfusion of acidic solutions using the SF-77B Fast-Step Perfusion device (Warner Instruments) for 40 ms once every 30 s (unless indicated otherwise) and recorded till steady state was reached. The holding potential was 0 mV unless indicated otherwise.
(§4) Baseline values (i.e., current amplitudes at the conditioning pH) were subtracted to obtain responses evoked by the test pH. Responses were normalized for each cell before averaging (see figure legends for more detail on normalization for each type of experiment). Concentration–response data were fitted to a logistic function of the form: R = (A1–A2)/(1 + (C/C0)^h)+A2, where R is the normalized response, C is either pH or compound concentration, C0 is the pH/concentration at which half-maximal response occurs (pH50 or IC50), h is the Hill coefficient, and A1 and A2 are constants. Kinetic parameters were obtained by fitting the data with either a single or double exponential function. Fitted data are shown as solid, dashed, or dotted curves.

rat ASIC1a [2] = target: T1, rat ASIC1a; test: pH dependence of channel activation (whole-cell patch clamp); type: cell-based; details: holding pH 8.2
Protocol: as §1, §2, §3, §4

Cc1cc(N2CC(Oc3cc(F)c4c(N)n[nH]c4c3)C2)c(F)cn1 [JNJ-67869386]
pH 6.8-induced current, % pH7.4 control (rat ASIC1a [1]; t = 20 s): 90.8% | pH 6.8-induced current, % pH7.4 control (rat ASIC1a [1]; t = 30 s): 132.5% | pH 6.8-induced current, % pH7.4 control (rat ASIC1a [1]; t = 40 s): 161.6% | pH 6.8-induced current, % pH7.4 control (rat ASIC1a [1]; t = 50 s): 157.3% | pH 6.8-induced current, % pH7.4 control (rat ASIC1a [1]; t = 60 s): 153.5% | pH 6.8-induced current, % pH7.4 control (rat ASIC1a [1]; t = 70 s): 157.1% | pH 6.8-induced current, % pH7.4 control (rat ASIC1a [1]; t = 80 s): 151.7% | pH 6.8-induced current, % pH7.4 control (rat ASIC1a [1]; t = 90 s): 149.4% | pH 6.8-induced current, % pH7.4 control (rat ASIC1a [1]; t = 100 s): 151.7% | pH 6.8-induced current, % pH7.4 control (rat ASIC1a [1]; t = 110 s): 141.4% | pH 6.8-induced current, % pH7.4 control (rat ASIC1a [1]; t = 120 s): 127.3% | pH 6.8-induced current, % pH7.4 control (rat ASIC1a [1]; t = 130 s): 116.2% | pH 6.8-induced current, % pH7.4 control (rat ASIC1a [1]; t = 140 s): 120.1% | pH 6.8-induced current, % pH7.4 control (rat ASIC1a [1]; t = 150 s): 108.5% | pH 6.8-induced current, % pH7.4 control (rat ASIC1a [1]; t = 160 s): 117.3% | pH 6.8-induced current, % pH7.4 control (rat ASIC1a [1]; t = 170 s): 108.8% | pH 6.8-induced current, % pH7.4 control (rat ASIC1a [1]; t = 180 s): 100.4% | pH 6.8-induced current, % pH7.4 control (rat ASIC1a [1]; t = 190 s): 95.1% | pH 6.8-induced current, % pH7.4 control (rat ASIC1a [1]; t = 200 s): 97.0% | pH 6.8-induced current, % pH7.4 control (rat ASIC1a [1]; t = 210 s): 100.5% | pH 6.8-induced current, % pH7.4 control (rat ASIC1a [1]; t = 220 s): 101.0% | pH 6.8-induced current, % pH8.2 control (rat ASIC1a [1]; t = 10 s): 18.2% | pH 6.8-induced current, % pH8.2 control (rat ASIC1a [1]; t = 20 s): 43.8% | pH 6.8-induced current, % pH8.2 control (rat ASIC1a [1]; t = 30 s): 63.8% | pH 6.8-induced current, % pH8.2 control (rat ASIC1a [1]; t = 40 s): 78.5% | pH 6.8-induced current, % pH8.2 control (rat ASIC1a [1]; t = 50 s): 78.9% | pH 6.8-induced current, % pH8.2 control (rat ASIC1a [1]; t = 60 s): 93.2% | pH 6.8-induced current, % pH8.2 control (rat ASIC1a [1]; t = 70 s): 87.4% | pH 6.8-induced current, % pH8.2 control (rat ASIC1a [1]; t = 80 s): 90.7% | pH 6.8-induced current, % pH8.2 control (rat ASIC1a [1]; t = 90 s): 90.7% | pH 6.8-induced current, % pH8.2 control (rat ASIC1a [1]; t = 100 s): 91.5% | pH 6.8-induced current, % pH8.2 control (rat ASIC1a [1]; t = 110 s): 90.6% | pH 6.8-induced current, % pH8.2 control (rat ASIC1a [1]; t = 120 s): 89.7% | pH 6.8-induced current, % pH8.2 control (rat ASIC1a [1]; t = 130 s): 92.5% | pH 6.8-induced current, % pH8.2 control (rat ASIC1a [1]; t = 140 s): 93.0% | pH 6.8-induced current, % pH8.2 control (rat ASIC1a [1]; t = 150 s): 92.2% | pH 6.8-induced current, % pH8.2 control (rat ASIC1a [1]; t = 160 s): 93.0% | max %response of channel activation (rat ASIC1a [2]; 10 nM): 95.3 ± 1.6% | pH50 of channel activation (rat ASIC1a [2]; 10 nM): 6.02 ± 0.03 | max %response of channel activation (rat ASIC1a [2]; 30 nM): 88.1 ± 1.0% | pH50 of channel activation (rat ASIC1a [2]; 30 nM): 5.87 ± 0.02 | max %response of channel activation (rat ASIC1a [2]; 100 nM): 82.6 ± 0.3% | pH50 of channel activation (rat ASIC1a [2]; 100 nM): 5.73 ± 0.00 | max %response of channel activation (rat ASIC1a [2]; 300 nM): 84.1 ± 0.5% | pH50 of channel activation (rat ASIC1a [2]; 300 nM): 5.70 ± 0.01 | max %response of channel activation (rat ASIC1a [2]; 1000 nM): 87.4 ± 0.5% | pH50 of channel activation (rat ASIC1a [2]; 1000 nM): 5.68 ± 0.01 | max %response of channel activation (rat ASIC1a [2]; 3000 nM): 82.9 ± 0.5% | pH50 of channel activation (rat ASIC1a [2]; 3000 nM): 5.70 ± 0.01
